{
  "source": "patent US20260207554A1",
  "about": "(priority 2022, published 2026)",
  "tested_on": "adult nondependent recreational opioid users",
  "details": "in vivo",
  "note": "Where a name gives a salt, the structure may show the parent alone.",
  "data": [
    {"smiles": "COc1ccc2c3c1O[C@H]1C(=O)CC[C@@]4(O)[C@@H](C2)N(C)CC[C@]314.Cl", "note": "[Oxycodone HCl]", "values": [
      {"measurement": "Skin and subcutaneous tissue disorders, subjects with TEAE n (%)", "setting": "human", "value": "(29.5%)"},
      {"measurement": "Abdominal pain upper, subjects with TEAE n (%)", "setting": "human, po", "value": 0, "unit": "%"},
      {"measurement": "Dizziness, subjects with TEAE n (%)", "setting": "human, po", "value": "(9.1%)"},
      {"measurement": "Gastrointestinal disorders, subjects with TEAE n (%)", "setting": "human, po", "value": "(27.3%)"},
      {"measurement": "Generalised tonic-clonic seizure, subjects with TEAE n (%)", "setting": "human, po", "value": 0, "unit": "%"},
      {"measurement": "Headache, subjects with TEAE n (%)", "setting": "human, po", "value": "(4.5%)"},
      {"measurement": "Hiccups, subjects with TEAE n (%)", "setting": "human, po", "value": "(6.8%)"},
      {"measurement": "Nervous system disorders, subjects with TEAE n (%)", "setting": "human, po", "value": "(22.7%)"},
      {"measurement": "Number of subjects with at least one TEAE, n (%)", "setting": "human, po", "value": "(56.8%)"},
      {"measurement": "Somnolence, subjects with TEAE n (%)", "setting": "human, po", "value": "(9.1%)"},
      {"measurement": "Tension headache, subjects with TEAE n (%)", "setting": "human, po", "value": 0, "unit": "%"},
      {"measurement": "Toothache, subjects with TEAE n (%)", "setting": "human, po", "value": 0, "unit": "%"},
      {"measurement": "Tremor, subjects with TEAE n (%)", "setting": "human, po", "value": 0, "unit": "%"},
      {"measurement": "Uvulitis, subjects with TEAE n (%)", "setting": "human, po", "value": 0, "unit": "%"},
      {"measurement": "Vertigo, subjects with TEAE n (%)", "setting": "human, po", "value": 0, "unit": "%"},
      {"measurement": "Vomiting, subjects with TEAE n (%)", "setting": "human, po", "value": "(15.9%)"},
      {"measurement": "feeling hot, incidence of subjects", "setting": "human, po", "value": 2.3, "unit": "%"},
      {"measurement": "hot flush, incidence of subjects", "setting": "human, po", "value": 11.4, "unit": "%"}
    ]},
    {"smiles": "COc1cccc(C2(O)CCCCC2CN(C)C)c1", "note": "(centres unmarked) [Tramadol HCl]", "values": [
      {"measurement": "Skin and subcutaneous tissue disorders, subjects with TEAE n (%)", "setting": "human", "value": "(25.6%)"},
      {"measurement": "Abdominal pain upper, subjects with TEAE n (%)", "setting": "human, po", "value": 0, "unit": "%"},
      {"measurement": "Dizziness, subjects with TEAE n (%)", "setting": "human, po", "value": "(2.6%)"},
      {"measurement": "Gastrointestinal disorders, subjects with TEAE n (%)", "setting": "human, po", "value": "(35.9%)"},
      {"measurement": "Generalised tonic-clonic seizure, subjects with TEAE n (%)", "setting": "human, po", "value": "(5.1%)"},
      {"measurement": "Headache, subjects with TEAE n (%)", "setting": "human, po", "value": "(7.7%)"},
      {"measurement": "Hiccups, subjects with TEAE n (%)", "setting": "human, po", "value": "(2.6%)"},
      {"measurement": "Number of subjects with at least one TEAE, n (%)", "setting": "human, po", "value": "(66.7%)"},
      {"measurement": "Somnolence, subjects with TEAE n (%)", "setting": "human, po", "value": "(7.7%)"},
      {"measurement": "Tension headache, subjects with TEAE n (%)", "setting": "human, po", "value": 0, "unit": "%"},
      {"measurement": "Toothache, subjects with TEAE n (%)", "setting": "human, po", "value": 0, "unit": "%"},
      {"measurement": "Tremor, subjects with TEAE n (%)", "setting": "human, po", "value": 0, "unit": "%"},
      {"measurement": "Uvulitis, subjects with TEAE n (%)", "setting": "human, po", "value": "(2.6%)"},
      {"measurement": "Vertigo, subjects with TEAE n (%)", "setting": "human, po", "value": "(2.6%)"},
      {"measurement": "feeling hot, incidence of subjects", "setting": "human, po", "value": 2.5, "unit": "%"},
      {"measurement": "hot flush, incidence of subjects", "setting": "human, po", "value": 12.8, "unit": "%"},
      {"measurement": "subjects who experienced seizures", "setting": "po", "value": "two subjects experienced seizures"}
    ]}
  ]
}
